What was measured:
[1] = system: IL-17-induced GROα secretion from HT-29 cells; assay: GROα release assay in human colorectal adenocarcinoma epithelial cell (HT-29, ELISA); assay type: cell-based; details: Homo sapiens, HT-29, 48 h, 10 ng/mL IL-17A, highest concentration 10 μM, read-out: Cellular assay HT29 cell/CXCL1 IC50
In short: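 IC50 values come from four-parameter fits of GROα levels, quantified by ELISA (450 nm, standard curve) in supernatants. Compounds, 4-fold serially diluted from 10 μM, were mixed 15 min with IL-17A (10 ng/mL final) before 48 h incubation with HT-29 cells at 37°C.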

[2] = biological target: human IL-17A / human IL-17RA (Homo sapiens (Human), UniProt Q16552); assay: Human IL-17A biochemical assay (HTRF, blocking of IL-17A binding to IL-17RA); details: 0.4 nM IL-17A, 0.3 nM IL-17RA, max compound concentration 10 uM
In short: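 Compounds (10-point, 2.7-fold dilution from 10 uM) preincubated 3 h at RT with 0.4 nM human IL-17A, followed by 1 h with 0.3 nM IL-17RA and 1 h with Tb-cryptate/XL665 antibodies; buffer 20 mM HEPES pH 7.5, 0.1% BSA. Inhibition derived from HTRF fluorescence ratio; IC50 by four-parameter logistic fitting.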

Sequence of human IL-17A / human IL-17RA (Q16552 24-155): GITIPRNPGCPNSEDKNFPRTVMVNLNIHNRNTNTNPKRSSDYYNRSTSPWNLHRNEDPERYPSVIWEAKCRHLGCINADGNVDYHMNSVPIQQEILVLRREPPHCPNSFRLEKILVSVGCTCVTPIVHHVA

For `CC(C)[C@@H]1CN(C2(C(=O)NCC(F)(F)F)Cc3ccc(NC(=O)[C@@H](NC(=O)c4ccnn4C)C4CCCCC4)cc3C2)C(=O)N1` (stereo partly drawn) [Example 68, N-((1S)-1-cyclohexyl-2-((2-((R)-4-isopropyl-2-oxoimidazolidin-1-yl)-2-((2,2,2-trifluoroethyl)carbamoyl)-2,3-dihydro-1H-inden-5-yl)amino)-2-oxoethyl)-1-methyl-1H-pyrazole-5-carboxamide], the IC50 [1] was 37 nM and the IC50 [2] was 30 nM.

Molecule `CNC(=O)C1(N2C[C@@H](C(C)C)NC2=O)Cc2ccc(NC(=O)[C@@H](NC(=O)c3cccc(Cl)c3)C3CCCCC3)cc2C1` (stereo partly drawn) [Example 69, 5-((S)-2-(3-chlorobenzamido)-2-cyclohexylacetamido)-2-((R)-4-isopropyl-2-oxoimidazolidin-1-yl)-N-methyl-2,3-dihydro-1H-indene-2-carboxamide] has an IC50 [1] of 432 nM and an IC50 [2] of 120 nM.

With `CNC(=O)C1(N2CC(C)(C)CNC2=O)Cc2ccc(NC(=O)[C@@H](NC(=O)c3ccnn3C)C3CCCCC3)cc2C1` (stereo partly drawn) [Example 70, N-((1S)-1-cyclohexyl-2-((2-(5,5-dimethyl-2-oxotetrahydropyrimidin-1(2H)-yl)-2-(methylcarbamoyl)-2,3-dihydro-1H-inden-5-yl)amino)-2-oxoethyl)-1-methyl-1H-pyrazole-5-carboxamide] the IC50 [1] was 70.6 nM and the IC50 [2] was 26 nM.

Work on `CNC(=O)C1(N2C[C@@H](C(C)C)NC2=O)Cc2ccc(NC(=O)[C@@H](NC(=O)c3cccc(C)c3)C3CCCCC3)cc2C1` (stereo partly drawn) [Example 71, 5-((S)-2-cyclohexyl-2-(3-methylbenzamido)acetamido)-2-((R)-4-isopropyl-2-oxoimidazolidin-1-yl)-N-methyl-2,3-dihydro-1H-indene-2-carboxamide] yielded an IC50 [1] of 217 nM and an IC50 [2] of 21 nM.

Molecule `CNC(=O)C1(N2CC(Cc3ccc(Cl)cc3)NC2=O)Cc2ccc(NC(=O)[C@@H](NC(=O)c3ccnn3C)C3CCCCC3)cc2C1` (stereo partly drawn) [Example 74, N-((1S)-2-((2-(4-(4-chlorobenzyl)-2-oxoimidazolidin-1-yl)-2-(methylcarbamoyl)-2,3-dihydro-1H-inden-5-yl)amino)-1-cyclohexyl-2-oxoethyl)-1-methyl-1H-pyrazole-5-carboxamide] has an IC50 [1] of 342 nM and an IC50 [2] of 32 nM.

`CCC1CNC(=O)N(C2(C(=O)NC)Cc3ccc(NC(=O)[C@@H](NC(=O)c4ccnn4C)C4CCCCC4)cc3C2)C1` (stereo partly drawn) [Example 75, N-((1S)-1-cyclohexyl-2-((2-(5-ethyl-2-oxotetrahydropyrimidin-1(2H)-yl)-2-(methylcarbamoyl)-2,3-dihydro-1H-inden-5-yl)amino)-2-oxoethyl)-1-methyl-1H-pyrazole-5-carboxamide] was tested, and the IC50 [1] was 186 nM and the IC50 [2] was 33 nM.

`CNC(=O)C1(N2C[C@@H](Cc3ccc(F)cc3)NC2=O)Cc2ccc(NC(=O)[C@@H](NC(=O)c3ccnn3C)C3CCCCC3)cc2C1` (stereo partly drawn) [Example 76, N-((1S)-1-cyclohexyl-2-((2-((R)-4-(4-fluorobenzyl)-2-oxoimidazolidin-1-yl)-2-(methylcarbamoyl)-2,3-dihydro-1H-inden-5-yl)amino)-2-oxoethyl)-1-methyl-1H-pyrazole-5-carboxamide] gave an IC50 [1] of 736 nM and an IC50 [2] of 90 nM.

For `CNC(=O)C1(N2C[C@@H](C(C)C)NC2=O)Cc2ccc(NC(=O)[C@H](Cc3cc(-c4ccnc(C(C)(C)O)c4)ccc3Cl)NC(=O)c3ccnn3C)cc2C1` (stereo partly drawn) [Example 79, N-((2S)-3-(2-chloro-5-(2-(2-hydroxypropan-2-yl)pyridin-4-yl)phenyl)-1-((2-((R)-4-isopropyl-2-oxoimidazolidin-1-yl)-2-(methylcarbamoyl)-2,3-dihydro-1H-inden-5-yl)amino)-1-oxopropan-2-yl)-1-methyl-1H-pyrazole-5-carboxamide], the IC50 [1] was 1300 nM and the IC50 [2] was 79 nM.

`CNC(=O)C1(N2CC(Cc3ccc(C(F)(F)F)cc3)NC2=O)Cc2ccc(NC(=O)[C@@H](NC(=O)c3ccnn3C)C3CCCCC3)cc2C1` (stereo partly drawn) [Example 80, N-((1S)-1-cyclohexyl-2-((2-(methylcarbamoyl)-2-(2-oxo-4-(4-(trifluoromethyl)benzyl)imidazolidin-1-yl)-2,3-dihydro-1H-inden-5-yl)amino)-2-oxoethyl)-1-methyl-1H-pyrazole-5-carboxamide] was tested, and the IC50 [1] was 971 nM and the IC50 [2] was 157 nM.

Molecule `CNC(=O)C1(N2CC(C(C)C(F)(F)F)NC2=O)Cc2ccc(NC(=O)[C@@H](NC(=O)c3ccnn3C)C3CCCCC3)cc2C1` (stereo partly drawn) [Example 81, N-((1S)-1-cyclohexyl-2-((2-(methylcarbamoyl)-2-(2-oxo-4-(1,1,1-trifluoropropan-2-yl)imidazolidin-1-yl)-2,3-dihydro-1H-inden-5-yl)amino)-2-oxoethyl)-1-methyl-1H-pyrazole-5-carboxamide] has an IC50 [1] of 702 nM and an IC50 [2] of 75 nM.

`[2H]C([2H])([2H])NC(=O)C1(N2C[C@@H](C(C)C)NC2=O)Cc2ccc(NC(=O)[C@@H](NC(=O)c3ccnn3C)C3CCCCCC3)cc2C1` (stereo partly drawn) [Example 82, N-((1S)-1-cycloheptyl-2-((2-((R)-4-isopropyl-2-oxoimidazolidin-1-yl)-2-((methyl-d3)carbamoyl)-2,3-dihydro-1H-inden-5-yl)amino)-2-oxoethyl)-1-methyl-1H-pyrazole-5-carboxamide] gave an IC50 [1] of 156 nM and an IC50 [2] of 32 nM.

With `CC(C)[C@@H]1CN(C2(C(N)=O)Cc3ccc(NC(=O)[C@@H](NC(=O)c4ccnn4C)C4CCCCCC4)cc3C2)C(=O)N1` (stereo partly drawn) [Example 83, N-((1S)-2-((2-carbamoyl-2-((R)-4-isopropyl-2-oxoimidazolidin-1-yl)-2,3-dihydro-1H-inden-5-yl)amino)-1-cycloheptyl-2-oxoethyl)-1-methyl-1H-pyrazole-5-carboxamide] the IC50 [1] was 190 nM and the IC50 [2] was 22 nM.

In the case of `CNC(=O)C1(N2C[C@@H](C(C)C)NC2=O)Cc2ccc(NC(=O)[C@@H](NC(=O)c3cccc(OC(C)C)c3)C3CCCCC3)cc2C1` (stereo partly drawn) [Example 84, 5-((S)-2-cyclohexyl-2-(3-isopropoxybenzamido)acetamido)-2-((R)-4-isopropyl-2-oxoimidazolidin-1-yl)-N-methyl-2,3-dihydro-1H-indene-2-carboxamide], the IC50 [1] is reported as 94.4 nM and the IC50 [2] is reported as 37 nM.

`CC(C)[C@@H]1CN(C2(C(=O)NC(CO)C3CCC3)Cc3ccc(NC(=O)[C@@H](NC(=O)c4ccnn4C)C4CCCCC4)cc3C2)C(=O)N1` (stereo partly drawn) [Example 86, N-((1S)-2-((2-((1-cyclobutyl-2-hydroxyethyl)carbamoyl)-2-((R)-4-isopropyl-2-oxoimidazolidin-1-yl)-2,3-dihydro-1H-inden-5-yl)amino)-1-cyclohexyl-2-oxoethyl)-1-methyl-1H-pyrazole-5-carboxamide] was tested, and the IC50 [1] was 23.5 nM and the IC50 [2] was 22 nM.

Molecule `CNC(=O)C1(N2C[C@@H](C(C)C)NC2=O)Cc2ccc(NC(=O)C(NC(=O)c3ccnn3C)C3CCC(C)(C)CC3)cc2C1` (stereo partly drawn) [Example 87, N-(1-(4,4-dimethylcyclohexyl)-2-((2-((R)-4-isopropyl-2-oxoimidazolidin-1-yl)-2-(methylcarbamoyl)-2,3-dihydro-1H-inden-5-yl)amino)-2-oxoethyl)-1-methyl-1H-pyrazole-5-carboxamide] has an IC50 [1] of 352 nM and an IC50 [2] of 36 nM.

`CNC(=O)C1(N2C[C@@H](C(C)C)NC2=O)Cc2ccc(NC(=O)C(NC(=O)c3ccnn3C)C3CCC(C)CC3)cc2C1` (stereo partly drawn) [Example 89, N-(2-((2-((R)-4-isopropyl-2-oxoimidazolidin-1-yl)-2-(methylcarbamoyl)-2,3-dihydro-1H-inden-5-yl)amino)-1-(4-methylcyclohexyl)-2-oxoethyl)-1-methyl-1H-pyrazole-5-carboxamide] was tested, and the IC50 [1] was 29.7 nM and the IC50 [2] was 18 nM.

Reference: patent publication US20250154138A1, “Small Molecule IL-17A Modulators” (BeiGene, Ltd., priority 2022, published 2025)
